Experimental data from patent US5198552A, “Indole derivative having antiviral, interferon-inducing and immunomodulatory effects” (priority 1991, dated 1993).
“And” between values parts separate entries of the source, which are not always exact repeats. Equal entries are not always repeated.

Tests used:
[1] = Long-term per os toxicity, dogs; format: in vivo; settings: per os 25 mg/kg over 6 months
Salmonella typhimurium = experiment: Mutagenic activity on Salmonella typhimurium; settings: 50 to 1000 μm per disk
[2] = test system: herpes simplex virus from antigen-type I L2 -strain; experiment: Preventive action in generalized mouse herpes; set-up: species or system mice; settings: in vivo
peritoneal macrophages = experiment: Absorbing capacity of mouse peritoneal macrophages (neutral red); format: in vivo, mice; set-up: Absorbing Capacity, percent of control: concentration or dose not given beside the values
[3] = 1 day after single administration
[4] = 2 day after single administration

Compound: CCOC(=O)c1c(CSc2ccccc2)n(C)c2cc(Br)c(O)c(CN(C)C)c12.Cl.O [preparation of the invention, ethyl 6-bromo-5-hydroxy-4-dimethylaminomethyl-1-methyl-2-phenylthiomethylindole-3-carboxylate hydrochloride monohydrate]
- pathological changes [1]: did not cause any pathological changes
- mutagenic activity (Salmonella typhimurium): no mutagenic activity
- prevention of death [2]: 40%
- Lethality ([2]; hydrochloride monohydrate): 60% and 75%
- Lethality: absolute animal number ([2]; hydrochloride monohydrate): 12/20 and 15/20
- The decrease of lethality ([2]; hydrochloride monohydrate): 40% and 25%
- Absorbing Capacity of Peritoneal Macrophages (peritoneal macrophages; [3]): 27.7 ± 3.5 mg/6 × 10^6 cells
- Absorbing Capacity, percent of control (peritoneal macrophages; [3]): 125 ± 17%
- Absorbing Capacity of Peritoneal Macrophages (peritoneal macrophages; [4]): 33.6 ± 4.7 mg/6 × 10^6 cells
- Absorbing Capacity, percent of control (peritoneal macrophages; [4]): 147 ± 20.6%
- Absorbing Capacity of Peritoneal Macrophages (peritoneal macrophages; 3 day after single administration): 37.4 ± 3.7 mg/6 × 10^6 cells
- absorbing capacity of macrophages (peritoneal macrophages; by 2-3 days after a single administration, p<0.05): 164±13%
- stimulation of absorbing capacity of macrophages (peritoneal macrophages; in vivo): stimulates the absorbing capacity of macrophages to a greater extent than administration of levamisole
- effect on counts of macrophages washed off the peritoneal cavity (peritoneal macrophages; mouse, in vivo): no effect on counts of macrophages
